Test system: Meloidogyne incognita
Test: Meloidogyne incognita test (MELGIN), sand, gall formation on salad seedlings after 14 days
Assay type: in vivo
Conditions: application rate 20 ppm, 100% = no galls, 0% = galls equal to untreated control
Protocol: 1. Meloidogyne incognita—test (MELGIN) [table] To produce a suitable preparation of active compound, 1 part by weight of active compound is mixed with the stated amount of solvent, and the concentrate is diluted with water to the desired concentration. Vessels are filled with sand, a solution of the active ingredient, a suspension containing eggs and larvae of the southern root-knot nematode (Meloidogyne incognita) and salad seeds. The salad seeds germinate and the seedlings grow. Galls develop in the roots. After 14 days the nematicidal activity is determined on the basis of the percentage of gall formation. 100% means no galls were found; 0% means the number of galls found on the roots of the treated plants was equal to that in untreated control plants.

For `N#Cc1cnn(Cc2ccc(Cl)c(S(=O)(=O)NC(=O)c3cn4cc(C(F)(F)F)cc(Cl)c4n3)c2)c1` [Ia-14, 8-chloro-N-({2-chloro-5-[(4-cyano-1H-pyrazol-1-yl)methyl]phenyl}sulfonyl)-6-(trifluoromethyl)imidazo[1,2-a]pyridine-2-carboxamide], the “nematicidal activity on the basis of the percentage of gall formation” value was 100%.
